According to patent publication US12508260B2, “Combination treatments” (Celex Oncology Innovations Limited, priority 2019, dated 2025):
Like-named read-outs stand apart in the source and are kept apart here.

Columns and labels:
MDA-MB-231 cells [1] = assay: Cell viability, trypan blue dye exclusion, MDA-MB-231; format: cell-based, human; conditions: normoxia or hypoxia, 48 h
Protocol: (§1) Cell viability was determined with the use of trypan blue dye exclusion assay. The assay was undertaken both in normoxic and hypoxic conditions. Upon completion of the treatment period, the media was aspirated and replaced with 0.2 mL of 0.4% trypan blue (Sigma-Aldrich) and 0.8 mL of DMEM media. The dish was mixed and incubated for 10 min in the humidified chamber. The trypan blue solution was replaced with 1 mL of DMEM and the dishes were observed under an inverted microscope (ID 03, Zeiss) at 100× magnification under phase contrast. The MTT assay was used to assess cell metabolic activity by determining the level of NAD (P) H-dependent cellular oxidoreductase enzymes. Cells were seeded in 24 well plates (Becton Dickinson, Oxford, UK) at 2×10^4 cells/well and were allowed to settle overnight before treatment. During the treatment, 500 μL of solution was added to each well and the assays were undertaken in both normoxic and hypoxic conditions. Upon treatment completion, 400 μL of DMEM and 100 μL of MTT was added into each well. […] The plates were rocked at 150 cycles/min for 5 min to mix the formazan with DMSO and the resulting formazan absorbance was measured at 570 nm with a multi-plate reader (ELX800 Universal Microplate Reader, Bio-Tek Instruments, UK). Two measurements for each result were recorded with a 5 min interval and the average was calculated.

MDA-MB-468 cells [2] = assay: Matrigel invasion assay, MDA-MB-468 cells; format: cell-based, human; conditions: hypoxia, FIG. 8
MDA-MB-231 cells [3] = assay: Matrigel invasion assay, MDA-MB-231 cells; format: cell-based, human
nNav1.5 protein = assay: Immunocytochemistry of nNav1.5 protein expression in MDA-MB-231 cells; format: cell-based, human; conditions: hypoxia
Protocol: Cells were first seeded in 35×10 mm dishes (Becton Dickinson) at 5×10^5 cell/dish and left to settle overnight. The cells were pre-treated with treatment solutions for 32 h. The assay was only performed under hypoxia conditions. Before seeding the cells, 13 mm coverslips were placed in 24 well plates and 500 μL poly-L-lysine (Sigma) was added to each well for 20 min. After the period of pre-treatments, cells were trypsinized and seeded at 2×10^4 cells/coverslip in 500 μL of their respective treatment solutions. The plates were incubated under hypoxic condition and the assay was allowed for 16 h. At least two coverslips were prepared for each experiment. Upon assay completion, the coverslips were washed with phosphate buffered saline (PBS) before being fixed with 500 μL of 4% paraformaldehyde (Sigma) diluted in PBS. Fixation was for 10 min at room temperature on an orbital shaker. Coverslips were then washed 3×5 min in PBS. One of the coverslips for each condition was permeabilised with 500 μL 0.1% saponin/PBS solution (Sigma) for 4 min and 3×5 min of PBS washes followed. Permeabilised and non-permeabilised coverslips were all were treated with 500 μL 5% bovine serum albumin (BSA)/PBS (pH 7.4, v/v; Dako, Cambridge, UK) blocking agent for 1 h. Coverslips were transferred from the 24 well plate to a humidity chamber and were incubated with 100 μL of the primary antibody (NESOpAb) at a 1:200 dilution of the 0.7 mg/mL stock on an orbital shaker overnight at 3-5° C. The primary antibody used was NESOpAb which can specifically recognize and bind an external epitope sequence of the neonatal isoform of Nav1.5 […] et al., 2005). Coverslips were then rinsed with 3×5 min PBS and incubated with 100 μL of the secondary antibody, goat anti-rabbit IgG Alexa Fluor® 568, at a 1:100 concentration (Dako) for 1 h in darkness at room temperature. Coverslips for negative controls (which were incubated with secondary antibody only) were also prepared to check the specificity of the primary antibody. Coverslips were then rinsed with 3×5 min PBS+0.1% BSA and dipped in distilled water before being mounted on glass slides using mounting medium (Dako) and stored in darkness at 3-5° C. Images were taken with a Canon® digital camera inserted into an Axioimager immunofluorescence and phase contrast inverted microscope (Zeiss) and processed with Remote Capture Software® (Canon). ImageJ was used to analyse and quantify the corrected total cell florescence.

VGSC = target: T1, VGSC (Homo sapiens, UniProt Q14524, S234P/V215L); assay: Whole-cell patch clamp of VGSC current in MDA-MB-231 cells; format: cell-based
T1 construct: minoxidil on the VGSC activity in MDA-MB-231 cells; endogenous in cells; host or cells: MDA-MB-231 (human breast cancer cell line)
Protocol: Whole-cell patch clamp recordings are performed on cells under superfusion with mammalian physiological saline (MPS). Details of whole-cell recordings have been described previously (Fraser et al., 2003, 2005; Grimes et al., 1995; Laniado et al., 1997). In brief, MPS contains (in mM): 144 NaCl, 5.4 KCl, 1 MgCl2, 2.5 CaCl2), 5 HEPES and 5.6 D-glucose (adjusted to pH 7.3 with NaOH). Patch pipettes (tip resistances, ˜5 MΩ) are filled with a solution designed to block the outward K^+ currents (in mM): NaCl 5, CsCl 145, MgCl2 2, CaCl2) 1, HEPES 10 and EGTA 11, adjusted to pH 7.4 with 1 M CsOH. The estimated intracellular free Ca^2+ concentration is ˜15 nM (Laniado et al., 2001). A holding potential of −100 mV is applied. Standard voltage-clamp protocols are used to study the electrophysiological properties of the VGSC currents. Mainly the following characteristics are studied: peak current (and its density), current-voltage relationship (current normalized to peak), steady-state inactivation/“availability”=test current (I)/maximum current (Imax); recovery from inactivation=test current (It)/control current (Ic). For accurate determination of the acute effect of minoxidil on peak current block, only currents larger than 200 pA are used. Further details of the voltage-clamp protocols, data analysis and curve fitting have been published earlier (Onkal et al., 2008).

MDA-MB-468 cells [4] = assay: Cell viability, trypan blue dye exclusion, MDA-MB-468; format: cell-based, human; conditions: normoxia or hypoxia, 48 h
Protocol: as §1

[5] = 50 μM minoxidil, short-term (acute) application, FIG. 11

Compound: COc1ccccc1OCC(O)CN1CCN(CC(=O)Nc2c(C)cccc2C)CC1 (stereo not shown) [ranolazine, N-(2,6-Dimethylphenyl)-4-[2-hydroxy-3-(2-methoxyphenoxy)propyl]-1-piperazineacetamide]
- effect on cell viability (MDA-MB-231 cells [1]; 5 μM ranolazine): no effect
- reduction of cell invasion (MDA-MB-468 cells [2]; 2.5 μM ranolazine): 33%
- reduction of cell invasion (MDA-MB-231 cells [3]; 0.625 μM ranolazine, hypoxia, FIG. 6c): 24%
- reduction of cell invasion (MDA-MB-231 cells [3]; 1.25 μM ranolazine, hypoxia, FIG. 6b): 32%
- reduction of cell invasion (MDA-MB-231 cells [3]; 2.5 μM ranolazine, hypoxia, FIG. 6a): 36%
- reduction of cell invasion (MDA-MB-231 cells [3]; 2.5 μM ranolazine, hypoxia, FIG. 7a): 30%
- effect on cell invasion (MDA-MB-231 cells [3]; 2.5 μM ranolazine, normoxia, FIG. 7b): no effect
- reduction of cell invasion (MDA-MB-231 cells [3]; 5 μM ranolazine, hypoxia, FIG. 5a): 42%
- reduction of cell invasion (MDA-MB-231 cells [3]; 5 μM ranolazine, hypoxia, set with 2.5 μM minoxidil (FIG. 4b/5b)): 43%
- reduction of nNav1.5 protein expression (nNav1.5 protein; 5 μM ranolazine, non-permeabilized cells (plasma membrane), FIG. 9a): 30%
- reduction of nNav1.5 protein expression (nNav1.5 protein; 5 μM ranolazine, permeabilized cells (total), FIG. 9b): 43%
- effect on the transient ('peak') component of VGSC current (VGSC; ranolazine at the concentrations used in the Examples (<<10 µM), FIG. 2): hardly any effect
- effect on cell viability (MDA-MB-468 cells [4]; 5 μM ranolazine): no effect

Compound: Nc1cc(N2CCCCC2)nc(N)[n+]1[O-] [minoxidil, 6-(1-Piperidinyl)pyrimidine-2,4-diamine 3-oxide]
- effect on cell viability (MDA-MB-231 cells [1]; 50 μM minoxidil): no effect
- reduction of cell invasion (MDA-MB-468 cells [2]; 2.5 μM minoxidil): 44%
- reduction of cell invasion (MDA-MB-231 cells [3]; 2.5 μM minoxidil, hypoxia, FIG. 6a): 24%
- reduction of cell invasion (MDA-MB-231 cells [3]; 2.5 μM minoxidil, hypoxia, FIG. 6b): 41%
- reduction of cell invasion (MDA-MB-231 cells [3]; 2.5 μM minoxidil, hypoxia, FIG. 6c): 42%
- reduction of cell invasion (MDA-MB-231 cells [3]; 2.5 μM minoxidil, hypoxia, FIG. 7a): 49%
- reduction of cell invasion (MDA-MB-231 cells [3]; 2.5 μM minoxidil, hypoxia, set with 5 μM ranolazine (FIG. 4b/5b)): 48%
- reduction of cell invasion (MDA-MB-231 cells [3]; 2.5 μM minoxidil, normoxia, FIG. 7b): 53%
- reduction of cell invasion (MDA-MB-231 cells [3]; 5 μM minoxidil, hypoxia, FIG. 5a): 56%
- reduction of cell invasion (MDA-MB-231 cells [3]; 50 μM minoxidil, hypoxia, FIG. 5a): 89%
- effect on nNav1.5 protein expression (nNav1.5 protein; 50 μM minoxidil, non-permeabilized cells, FIG. 9a, P=0.58): neither minoxidil nor the drug combination had a significant effect
- reduction of nNav1.5 protein expression (nNav1.5 protein; 50 μM minoxidil, permeabilized cells (total), FIG. 9b): 49%
- effect on VGSC characteristics (VGSC; 50 μM minoxidil, long-term (48 hour) treatment under hypoxia, then washing off, FIG. 12): no change
- effect on peak current (VGSC; [5]): no effect
- effect on steady-state inactivation (VGSC; [5]): shifted the steady-state inactivation to more hyperpolarised potentials
- effect on cell viability (MDA-MB-468 cells [4]; 50 μM minoxidil): no effect

Compound: NC1=N[C@H](O)[C@H]2[C@H]3O[C@]4(O)O[C@@H]([C@@H](O)[C@@]2(N1)[C@@H]4O)[C@]3(O)CO [TTX, Tetrodotoxin]
- effect on invasiveness (normalized to control) (MDA-MB-231 cells [3]): slight effect but this is not significant

Compound: COc1cc2ncnc(Nc3cccc(Cl)c3)c2cc1OC [AG1478, N-(3-chlorophenyl)-6,7-dimethoxy-4-quinazolinamine]
- effect on invasiveness (normalized to control) (MDA-MB-231 cells [3]; 10 μM AG1478, normoxia, FIG. 10): significant inhibitory effect
